Tests used:
TNF-α = experiment: Inhibition of LPS-induced TNF-α production in rats; format: in vivo, rat; conditions: for Serum TNF-α measured 120 after initiation of LPS infusion: mean ± SE, N = 6; for reduction of serum level of TNF-α compared to vehicle treatment: 5.0 mg/kg dose level, 120 min after initiation of LPS infusion
Protocol: (§1) Experimental animals. Female Wistar rats (˜250 g) were obtained from the Charles River, Sulzfeld, Germany, and housed in a temperature- (22-24° C.) and moisture-controlled (40-70%) room with a 12 h light-dark cycle (light on from 6:00 A.M. to 6:00 P.M.). The rats were maintained on a standard rodent diet with 140 mmol/kg of sodium, 275 mmol/kg potassium and 23% protein (Altromin International, Lage, Germany) and had free access to water.
(§2) Animal preparation. […] After instrumentation, the animals were housed individually for 7-10 days until the day of the experiment.
(§3) Experimental protocol. Prior to the experiments all rats were adapted to the restraining cage used for the experiments by training. On the day of the experiment, the animal were transferred to a restraining cage, and an intravenous infusion of vehicle solution containing 150 mM glucose was started. The infusion rate was 0.5 ml/h throughout the experiment. After a short adaptation period, infusion of lipopolysaccharide (LPS) was started. LPS (E. coli serotype 0127 B8, L 3129, Sigma, St. Louis, USA) was given at a dose of 4 mg/kg body weight delivered as an i.v. infusion over 1 hour.
(§4) Arterial blood samples of 0.3 ml were taken 120 minutes after start of the LPS infusion.
(§5) In addition to LPS infusion all rats were treated with a bolus injection of:
(§6) Vehicle (0.5 mL 20% PEG200) or test compound in one of the following doses:
(§7) 0.1; 1.0; 5.0 mg/kg given intravenously 5 min prior to initiation of the LPS infusion.
(§8) Test compounds: Compound 1 of the invention (FIG. 1A, structure no. 1), compound 2 of the invention (FIG. 1D, structure no. 19) and compound 3 of the invention (FIG. 1I, structure no. 53).
(§9) Measurement of TNF-α and IL-10 in plasma: The blood samples were collected in a prechilled test tube with 0.5 mM EDTA, pH 7.4, and 20×10^6 IU/ml aprotinin. After centrifugation at 4° C., plasma samples were transferred to pre-chilled test tubes and stored at −20° C. for later measurements of TNF-α and IL-10. TNF-α and Il-10 in plasma were determined by an ELISA (Biotrak, Amersham, UK).
(§10) Statistical analyses. Results are presented as means±SE. A two-way ANOVA for repeated measures was used to test for differences between groups. In case of P<0.05, the differences between corresponding periods are evaluated by unpaired t-tests with Bonferroni's correction of the level of significance.

human MC4 receptor = molecular target: T1, human MC4 receptor (Homo sapiens, UniProt P32245); experiment: [125I]-NDP-MSH radio-ligand binding, MC4 (h) receptor (recombinant CHO cells); conditions: 120 min/37° C.
T1 construct: expressed in transfected cells; host or cells: CHO cells
Protocol: (§11) Determination of binding affinities for MC receptors was performed by [^125I]-[Nle4,D-Phe7]α-MSH ([^125I]-NDP-MSH) radio-ligand binding. In short, murine B16-F1 melanoma cells expressing MC1, but not other MC receptors, were used for binding affinity studies against the murine MC1 receptor (Siegrist et al.; 1988, J. Recept. Res., 8(1-4):323-43). For human MC3, MC4 and MC5 receptor affinities human recombinant CHO cells were used (Schioth et al. 1997, Neuropeptides 31:565-71, 1997). Cells were suspended in HEPES buffer and by use of microwell plates radio-ligands, as well as test compound, in the concentration range of 10^−10 to 10^−6 were added. After incubation at 37° C. (22° C. for the MC1 receptor assay) separation of bound and free [^125I]-NDP-MSH was done by multiple washings with buffer.
(§12) The results were expressed as a percent of control specific binding obtained in the presence of the test compounds. The IC50 values (concentration causing a half-maximal inhibition of control specific binding) and Hill coefficients (nH) were determined by non-linear regression analysis of the competition curves using Hill equation curve fitting. The inhibition constants (Ki) were calculated from the Cheng Prusoff equation (Ki=IC50/(1+(L/KD)), where L=concentration of radio-ligand in the assay, and KD=affinity of the radio-ligand for the receptor).

human MC3 receptor = molecular target: T2, human MC3 receptor (Homo sapiens, UniProt P41968); experiment: [125I]-NDP-MSH radio-ligand binding, MC3 (h) receptor (recombinant CHO cells); conditions: 60 min/37° C.
T2 construct: expressed in transfected cells; host or cells: CHO cells
Protocol: as §11, §12

IL10 = experiment: Inhibition of LPS-induced IL10 production in rats; format: in vivo, rat; conditions: for Serum IL10 measured 120 after initiation of LPS infusion: mean ± SE, N = 6; for reduction of serum level of IL10 compared to vehicle treatment: 5.0 mg/kg dose level; for dose level of maximal effect (IL10): doses tested 0.1, 1.0, 5.0 mg/kg i.v.
Protocol: as §1, §2, §3, §4, §5, §6, §7, §8, §9, §10

human MC5 receptor = molecular target: T3, human MC5 receptor (Homo sapiens, UniProt P33032); experiment: [125I]-NDP-MSH radio-ligand binding, MC5 (h) receptor (recombinant CHO cells); conditions: 60 min/37° C.
T3 construct: expressed in transfected cells; host or cells: CHO cells
Protocol: as §11, §12

[1] = 0.1 mg/kg i.v. 5 min prior to LPS
[2] = 1.0 mg/kg i.v. 5 min prior to LPS
[3] = 5.0 mg/kg i.v. 5 min prior to LPS
[4] = 120 min after initiation of LPS infusion

T2 sequence (P41968 whole entry): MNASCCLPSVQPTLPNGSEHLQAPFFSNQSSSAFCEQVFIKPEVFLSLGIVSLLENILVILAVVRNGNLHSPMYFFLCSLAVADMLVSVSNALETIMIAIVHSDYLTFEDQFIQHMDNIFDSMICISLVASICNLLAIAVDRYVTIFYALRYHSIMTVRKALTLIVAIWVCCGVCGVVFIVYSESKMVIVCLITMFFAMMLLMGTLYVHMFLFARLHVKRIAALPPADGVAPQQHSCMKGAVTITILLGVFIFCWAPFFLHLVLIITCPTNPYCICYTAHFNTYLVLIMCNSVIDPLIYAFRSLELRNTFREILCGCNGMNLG
T3 sequence (P33032 whole entry): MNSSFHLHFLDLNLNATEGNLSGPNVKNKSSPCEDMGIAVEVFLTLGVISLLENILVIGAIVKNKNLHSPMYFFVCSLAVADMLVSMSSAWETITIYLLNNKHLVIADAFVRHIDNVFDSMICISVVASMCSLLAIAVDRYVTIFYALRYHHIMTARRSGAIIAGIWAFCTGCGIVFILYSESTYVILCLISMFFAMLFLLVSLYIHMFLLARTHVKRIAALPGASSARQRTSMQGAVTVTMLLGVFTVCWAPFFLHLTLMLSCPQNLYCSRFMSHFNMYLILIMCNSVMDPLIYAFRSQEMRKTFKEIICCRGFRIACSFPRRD
T1 sequence (P32245 whole entry): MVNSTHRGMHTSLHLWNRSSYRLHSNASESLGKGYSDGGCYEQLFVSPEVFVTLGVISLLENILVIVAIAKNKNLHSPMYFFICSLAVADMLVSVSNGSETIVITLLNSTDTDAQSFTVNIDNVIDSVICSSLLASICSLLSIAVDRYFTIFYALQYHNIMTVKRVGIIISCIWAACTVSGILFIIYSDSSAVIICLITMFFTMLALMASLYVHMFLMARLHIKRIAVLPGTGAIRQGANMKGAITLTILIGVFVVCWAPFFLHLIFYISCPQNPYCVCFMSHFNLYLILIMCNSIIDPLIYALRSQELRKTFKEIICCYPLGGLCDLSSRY

Row | SMILES | Serum TNF-α measured 120 after initiation of LPS infusion (TNF-α; [1]) [pg/mL] | Serum TNF-α measured 120 after initiation of LPS infusion (TNF-α; [2]) [pg/mL] | reduction of serum level of TNF-α compared to vehicle treatment (TNF-α) [%] | Serum TNF-α measured 120 after initiation of LPS infusion (TNF-α; [3]) [pg/mL] | Ki (human MC4 receptor) [nM] | Ki (human MC3 receptor) [nM] | Serum IL10 measured 120 after initiation of LPS infusion (IL10; [1]) [pg/mL] | Serum IL10 measured 120 after initiation of LPS infusion (IL10; [2]) [pg/mL] | reduction of serum level of IL10 compared to vehicle treatment (IL10; [4]) [%] | Serum IL10 measured 120 after initiation of LPS infusion (IL10; [3]) [pg/mL] | dose level of maximal effect (IL10) (IL10) [mg/kg] | Ki (human MC5 receptor) [nM] | dose level of maximal anti-inflammatory effect (TNF-α) (TNF-α; doses tested 0.1, 1.0, 5.0 mg/kg i.v.) [mg/kg] | reduction of IL10 response compared to vehicle treatment (IL10; 1.0 mg/kg dose level, 120 min after initiation of LPS infusion) [%]
1 | N=C(N)NN=CC=Cc1cccn1-c1ccc(Cl)cc1 [Compound 1, [1-(4-chlorophenyl)-1H-pyrrol-2-yl-allylideneamino]guanidinium acetate] | 10830 ± 4031 | 6230 ± 1786 | ~60 | 5800 ± 703 | 620 | > 1000 | 8485 ± 960 | 5978 ± 890 | ~25 | 5651 ± 325 | 5.0 | > 1000 | – | –
2 | N=C(N)NN=CC=Cc1cccn1-c1ccccc1[N+](=O)[O-] [Compound 2, [1-(2-nitrophenyl)-1H-pyrrol-2-yl-allylideneamino]guanidinium acetate] | 5964 ± 957 | 6130 ± 601 | – | 8380 ± 2694 | > 1000 | > 1000 | 7606 ± 1313 | 4770 ± 1387 | ~46 | 4053 ± 894 | 5.0 | > 1000 | 0.1 | –
3 | N=C(N)NN=CC=Cc1cccn1-c1ccccc1Br [Compound 3, [1-(2-bromophenyl)-1H-pyrrol-2-yl-allylideneamino]guanidinium acetate] | 10310 ± 2728 | 5250 ± 1113 | ~60 | 5020 ± 862 | 300 | 630 | 5658 ± 1119 | 3452 ± 1091 | – | 3856 ± 973 | 1.0 | > 1000 | – | ~55

Source: patent US8058306B2, “Phenyl pyrrole aminoguanidine derivatives” (Action Pharma A/S, priority 2006, dated 2011)
